Our source for the thermal stability z-score values is the supplement of paper PMC12463676, “Small-molecule dissolution of stress granules by redox modulation benefits ALS models” (Nature Chemical Biology, 2025).

Compound in one experiment: O=[As]([O-])(O)O.[K+] [potassium arsenate]
The experiment in a line: thermal stability z-score vs DMSO; higher = more thermally stabilized by treatment. Particulars: HeLa; arsenate concentration 1 mM. The method, then: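 Cellular thermal proteome profiling in HeLa cells treated with 1 mM arsenate for 1 h (DMSO pretreatment), heated to ten temperatures (37-66.3 °C). Soluble protein was quantified by TMT mass spectrometry relative to DMSO controls; the thermal stability score was transformed to a z-score; mean of n = 3 experiments.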

Compound in the next experiment: NC(=O)CCCCC1CCSS1 [lipoamide]
The experiment is described as above. Particulars: HeLa, lipoamide concentration 100 µM. Here is the method:
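Cellular thermal proteome profiling in HeLa cells. Cells were treated with 100 µM lipoamide for 1 h, with or without 1 mM arsenate for a further 1 h, then heated to ten temperatures (37-66.3 °C), and soluble protein was quantified by TMT mass spectrometry relative to 0.1% DMSO controls. The thermal stability score (sum of log2 fold changes minus the abundance score) was transformed to a z-score; mean of n = 3 experiments.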

Setting [1] is: arsenate co-treatment: 1 mM arsenate 1 h.
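Note: each temperature applied for 3 min, abundance score taken as mean log2 fold change at the two lowest temperatures, z-score obtained by mean subtraction and division by SD.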

UniProt P51151, sequence (P51151 whole entry): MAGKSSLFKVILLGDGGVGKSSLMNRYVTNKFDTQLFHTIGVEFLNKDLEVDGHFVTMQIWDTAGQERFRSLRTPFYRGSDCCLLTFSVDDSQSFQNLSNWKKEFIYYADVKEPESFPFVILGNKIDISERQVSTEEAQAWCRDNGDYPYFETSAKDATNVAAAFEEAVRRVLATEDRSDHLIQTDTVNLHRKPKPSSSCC
UniProt Q712K3, sequence (Q712K3 whole entry): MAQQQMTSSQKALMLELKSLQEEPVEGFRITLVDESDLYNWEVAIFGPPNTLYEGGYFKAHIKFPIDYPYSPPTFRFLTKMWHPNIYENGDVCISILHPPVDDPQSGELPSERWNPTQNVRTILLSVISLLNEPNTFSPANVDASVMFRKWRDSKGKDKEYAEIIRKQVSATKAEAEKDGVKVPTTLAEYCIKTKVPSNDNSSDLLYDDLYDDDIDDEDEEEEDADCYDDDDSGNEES
UniProt Q8NDD1, sequence (Q8NDD1 whole entry): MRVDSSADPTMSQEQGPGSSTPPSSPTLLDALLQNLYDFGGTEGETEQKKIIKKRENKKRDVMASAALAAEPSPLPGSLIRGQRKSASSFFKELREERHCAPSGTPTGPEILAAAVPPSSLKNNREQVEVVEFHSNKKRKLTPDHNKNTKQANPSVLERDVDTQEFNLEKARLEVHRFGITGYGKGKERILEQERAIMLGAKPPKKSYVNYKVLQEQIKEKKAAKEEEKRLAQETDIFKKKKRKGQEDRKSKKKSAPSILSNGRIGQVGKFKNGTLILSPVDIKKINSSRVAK
UniProt Q13619, sequence (Q13619 whole entry): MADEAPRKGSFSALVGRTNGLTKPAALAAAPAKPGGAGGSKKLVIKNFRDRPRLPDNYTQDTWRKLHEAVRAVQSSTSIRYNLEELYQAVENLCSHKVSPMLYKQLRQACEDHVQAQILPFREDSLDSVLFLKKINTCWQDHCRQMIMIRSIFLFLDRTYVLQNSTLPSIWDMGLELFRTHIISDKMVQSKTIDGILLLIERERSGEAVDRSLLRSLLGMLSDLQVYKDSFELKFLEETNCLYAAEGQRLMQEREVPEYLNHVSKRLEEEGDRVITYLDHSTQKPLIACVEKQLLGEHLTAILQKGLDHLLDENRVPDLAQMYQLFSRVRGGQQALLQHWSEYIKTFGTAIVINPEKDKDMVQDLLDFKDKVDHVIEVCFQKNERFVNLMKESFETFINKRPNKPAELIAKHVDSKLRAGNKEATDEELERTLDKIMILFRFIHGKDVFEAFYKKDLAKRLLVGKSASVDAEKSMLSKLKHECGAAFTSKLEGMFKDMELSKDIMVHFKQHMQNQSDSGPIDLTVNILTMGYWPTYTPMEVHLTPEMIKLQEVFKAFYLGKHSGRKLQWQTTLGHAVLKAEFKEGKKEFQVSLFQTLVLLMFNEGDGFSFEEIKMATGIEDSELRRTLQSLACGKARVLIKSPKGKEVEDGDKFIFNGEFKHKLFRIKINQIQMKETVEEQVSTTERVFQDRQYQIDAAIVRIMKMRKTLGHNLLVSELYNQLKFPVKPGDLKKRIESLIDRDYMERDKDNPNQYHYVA
UniProt P0C7P0, sequence (P0C7P0 whole entry): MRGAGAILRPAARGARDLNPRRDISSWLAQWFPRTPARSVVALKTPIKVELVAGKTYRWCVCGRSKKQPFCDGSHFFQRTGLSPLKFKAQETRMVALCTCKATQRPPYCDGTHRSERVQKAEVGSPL
UniProt Q9BY44, sequence (Q9BY44 whole entry): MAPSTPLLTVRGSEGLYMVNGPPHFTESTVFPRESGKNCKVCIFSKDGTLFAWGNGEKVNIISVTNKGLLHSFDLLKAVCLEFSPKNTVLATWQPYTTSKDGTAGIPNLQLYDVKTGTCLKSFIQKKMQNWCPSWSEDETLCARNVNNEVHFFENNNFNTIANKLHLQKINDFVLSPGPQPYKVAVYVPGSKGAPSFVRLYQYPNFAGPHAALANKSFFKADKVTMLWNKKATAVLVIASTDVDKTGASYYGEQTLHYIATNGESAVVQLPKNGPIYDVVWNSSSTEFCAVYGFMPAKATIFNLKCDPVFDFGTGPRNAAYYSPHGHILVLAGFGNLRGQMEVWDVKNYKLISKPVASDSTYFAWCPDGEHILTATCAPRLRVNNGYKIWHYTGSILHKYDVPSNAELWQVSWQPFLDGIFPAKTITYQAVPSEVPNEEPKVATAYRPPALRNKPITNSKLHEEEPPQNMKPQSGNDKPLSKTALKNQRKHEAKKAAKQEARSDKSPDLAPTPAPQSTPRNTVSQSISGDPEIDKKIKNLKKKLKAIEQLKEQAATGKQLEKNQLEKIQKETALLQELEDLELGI
UniProt O15357, sequence (O15357 whole entry): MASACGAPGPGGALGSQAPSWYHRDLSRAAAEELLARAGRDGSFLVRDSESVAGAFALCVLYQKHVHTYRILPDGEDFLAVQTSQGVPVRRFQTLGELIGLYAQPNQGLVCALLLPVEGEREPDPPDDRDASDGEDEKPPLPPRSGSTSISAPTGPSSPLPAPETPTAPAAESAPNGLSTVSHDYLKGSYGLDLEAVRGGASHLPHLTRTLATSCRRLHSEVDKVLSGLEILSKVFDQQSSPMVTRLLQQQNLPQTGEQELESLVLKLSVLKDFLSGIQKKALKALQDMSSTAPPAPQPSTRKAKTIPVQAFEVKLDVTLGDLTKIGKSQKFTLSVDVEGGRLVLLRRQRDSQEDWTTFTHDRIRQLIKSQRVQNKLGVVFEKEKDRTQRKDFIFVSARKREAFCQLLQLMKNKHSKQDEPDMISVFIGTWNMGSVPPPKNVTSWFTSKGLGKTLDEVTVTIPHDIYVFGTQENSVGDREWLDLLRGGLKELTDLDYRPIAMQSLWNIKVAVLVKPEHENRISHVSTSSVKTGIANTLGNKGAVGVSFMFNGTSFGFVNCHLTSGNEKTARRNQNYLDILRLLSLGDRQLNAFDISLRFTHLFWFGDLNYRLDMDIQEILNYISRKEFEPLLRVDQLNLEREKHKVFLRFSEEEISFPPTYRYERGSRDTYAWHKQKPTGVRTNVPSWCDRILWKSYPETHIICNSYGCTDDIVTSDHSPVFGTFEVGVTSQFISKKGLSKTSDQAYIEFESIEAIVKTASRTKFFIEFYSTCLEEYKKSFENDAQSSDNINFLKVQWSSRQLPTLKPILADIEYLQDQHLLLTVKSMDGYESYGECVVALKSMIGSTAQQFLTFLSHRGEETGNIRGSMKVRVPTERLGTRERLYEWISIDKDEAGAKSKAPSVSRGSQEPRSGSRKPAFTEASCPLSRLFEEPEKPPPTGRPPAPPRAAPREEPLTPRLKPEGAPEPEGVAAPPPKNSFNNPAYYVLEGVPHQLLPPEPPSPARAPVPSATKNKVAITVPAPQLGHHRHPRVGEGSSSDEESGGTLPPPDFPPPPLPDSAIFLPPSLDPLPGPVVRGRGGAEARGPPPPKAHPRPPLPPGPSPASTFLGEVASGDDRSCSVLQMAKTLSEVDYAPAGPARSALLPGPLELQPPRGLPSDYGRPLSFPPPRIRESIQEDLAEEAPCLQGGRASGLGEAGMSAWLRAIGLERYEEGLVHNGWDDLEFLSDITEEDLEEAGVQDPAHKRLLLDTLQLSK
UniProt Q6VY07, sequence (Q6VY07 whole entry, looked up): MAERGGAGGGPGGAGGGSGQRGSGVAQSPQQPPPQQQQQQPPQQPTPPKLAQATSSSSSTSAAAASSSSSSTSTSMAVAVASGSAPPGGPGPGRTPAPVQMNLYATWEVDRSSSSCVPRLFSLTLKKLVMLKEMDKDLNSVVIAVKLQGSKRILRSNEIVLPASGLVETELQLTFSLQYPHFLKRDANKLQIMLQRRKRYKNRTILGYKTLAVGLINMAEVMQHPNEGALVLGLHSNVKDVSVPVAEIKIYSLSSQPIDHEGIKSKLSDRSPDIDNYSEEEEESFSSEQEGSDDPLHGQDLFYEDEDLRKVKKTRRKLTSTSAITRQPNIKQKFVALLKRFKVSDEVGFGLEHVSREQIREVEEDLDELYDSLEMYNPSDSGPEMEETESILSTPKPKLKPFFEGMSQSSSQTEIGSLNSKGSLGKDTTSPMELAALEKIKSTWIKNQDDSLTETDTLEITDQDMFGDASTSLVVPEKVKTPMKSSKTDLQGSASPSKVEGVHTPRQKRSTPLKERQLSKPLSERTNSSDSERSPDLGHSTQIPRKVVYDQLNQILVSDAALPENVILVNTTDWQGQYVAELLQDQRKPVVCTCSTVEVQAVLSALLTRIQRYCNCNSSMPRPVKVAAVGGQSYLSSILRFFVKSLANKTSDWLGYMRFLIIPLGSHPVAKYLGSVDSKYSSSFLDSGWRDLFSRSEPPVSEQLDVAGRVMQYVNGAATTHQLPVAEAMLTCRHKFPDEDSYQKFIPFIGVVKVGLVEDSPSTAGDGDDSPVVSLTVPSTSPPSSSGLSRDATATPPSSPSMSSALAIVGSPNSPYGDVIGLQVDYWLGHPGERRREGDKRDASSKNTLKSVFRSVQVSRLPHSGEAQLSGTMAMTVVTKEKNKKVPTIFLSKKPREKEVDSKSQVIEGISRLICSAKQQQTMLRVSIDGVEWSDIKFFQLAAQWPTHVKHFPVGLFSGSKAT
UniProt Q8WWV3, sequence (Q8WWV3 whole entry): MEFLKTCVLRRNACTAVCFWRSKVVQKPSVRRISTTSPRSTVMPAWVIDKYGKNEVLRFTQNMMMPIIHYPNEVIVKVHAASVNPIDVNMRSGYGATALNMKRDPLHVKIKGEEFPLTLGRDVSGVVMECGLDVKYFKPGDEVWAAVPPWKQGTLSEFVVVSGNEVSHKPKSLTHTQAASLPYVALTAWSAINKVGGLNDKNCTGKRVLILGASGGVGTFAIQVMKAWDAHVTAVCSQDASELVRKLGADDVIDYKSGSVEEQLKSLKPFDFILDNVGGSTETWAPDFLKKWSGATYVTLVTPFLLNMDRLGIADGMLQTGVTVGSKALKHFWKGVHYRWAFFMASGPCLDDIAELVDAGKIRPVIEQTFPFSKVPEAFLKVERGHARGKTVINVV
UniProt O00422, sequence (O00422 whole entry): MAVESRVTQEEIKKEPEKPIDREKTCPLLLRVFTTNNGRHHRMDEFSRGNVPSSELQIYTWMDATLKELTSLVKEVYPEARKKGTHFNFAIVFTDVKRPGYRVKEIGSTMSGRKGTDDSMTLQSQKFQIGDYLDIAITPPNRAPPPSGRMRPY

On to SNRPC (UniProt P09234), for which the thermal stability z-score in the experiment with potassium arsenate was determined as 0.905; in the experiment with lipoamide (setting [1]) it was 0.137; with lipoamide (arsenate co-treatment: none), 0.0659.

Regarding THNSL1 (UniProt Q8IYQ7), the thermal stability z-score with potassium arsenate was 0.0365; in the experiment with lipoamide (setting [1]), 0.202; in the experiment with lipoamide (arsenate co-treatment: none), -0.188.

On to UTP4 (UniProt Q969X6), for which the thermal stability z-score with potassium arsenate is 0.0306; with lipoamide (setting [1]), 0.167; with lipoamide (arsenate co-treatment: none), 0.0645.

Regarding EIF2A (UniProt Q9BY44), the figures for the thermal stability z-score with potassium arsenate, in the experiment with lipoamide (setting [1]) and in the experiment with lipoamide (arsenate co-treatment: none) were 1.13, 0.673 and 0.102, respectively.

On to CD55 (UniProt P08174), for which the thermal stability z-score with potassium arsenate came out at 0.446; with lipoamide (setting [1]), 0.266; in the experiment with lipoamide (arsenate co-treatment: none) it was 0.169.

Regarding NBEAL2 (UniProt Q6ZNJ1), the thermal stability z-score was 0.0522 with potassium arsenate, -0.0914 with lipoamide (setting [1]) and 0.0428 in the experiment with lipoamide (arsenate co-treatment: none).

Regarding OGDH (UniProt Q02218), the thermal stability z-score is -0.531 with potassium arsenate, 0.182 in the experiment with lipoamide (setting [1]) and 0.151 with lipoamide (arsenate co-treatment: none).

For PUF60 (UniProt Q9UHX1), the thermal stability z-score was found to be 0.789 with potassium arsenate, 0.11 with lipoamide (setting [1]) and 0.816 with lipoamide (arsenate co-treatment: none).

REEP5 (UniProt Q00765): the thermal stability z-score was found to be 0.354 with potassium arsenate, 0.359 with lipoamide (setting [1]) and 1 with lipoamide (arsenate co-treatment: none).

UBE2R2 (UniProt Q712K3): the thermal stability z-score with potassium arsenate is -0.279; with lipoamide (setting [1]) it was 0.8; with lipoamide (arsenate co-treatment: none), 0.536.

Regarding LSM1 (UniProt O15116), the thermal stability z-score was 0.83 with potassium arsenate, 1.6 in the experiment with lipoamide (setting [1]) and 2.05 with lipoamide (arsenate co-treatment: none).

For PACS1 (UniProt Q6VY07), the thermal stability z-score with potassium arsenate was 0.404; in the experiment with lipoamide (setting [1]), -0.0876; with lipoamide (arsenate co-treatment: none), 0.134.

As for RTN4IP1 (UniProt Q8WWV3), the values for the thermal stability z-score in the experiment with potassium arsenate, in the experiment with lipoamide (setting [1]) and with lipoamide (arsenate co-treatment: none) were 0.0315, -0.324 and -0.26, respectively.

In the case of NAT10 (UniProt Q9H0A0), the thermal stability z-score with potassium arsenate was -0.812; with lipoamide (setting [1]), 0.444; in the experiment with lipoamide (arsenate co-treatment: none), -0.105.

As to TBCC (UniProt Q15814), the values for the thermal stability z-score with potassium arsenate, with lipoamide (setting [1]) and with lipoamide (arsenate co-treatment: none) were -0.00724, -0.35 and -0.196, respectively.

Regarding VPS25 (UniProt Q9BRG1), the thermal stability z-score with potassium arsenate is 0.0183; in the experiment with lipoamide (setting [1]) it was -0.593; with lipoamide (arsenate co-treatment: none), -0.349.

Take SAP18 (UniProt O00422): the thermal stability z-score was 0.519 with potassium arsenate, 0.465 in the experiment with lipoamide (setting [1]) and 0.0358 with lipoamide (arsenate co-treatment: none).

SEMA3B (UniProt Q13214): the thermal stability z-score with potassium arsenate was 0.997; in the experiment with lipoamide (setting [1]), -1.02; in the experiment with lipoamide (arsenate co-treatment: none) it was -1.61.

Consider SCAF8 (UniProt Q9UPN6), for which the thermal stability z-score with potassium arsenate is 0.155; with lipoamide (setting [1]), -0.0718; in the experiment with lipoamide (arsenate co-treatment: none), -0.03.

Regarding PDK2 (UniProt Q15119), the results for the thermal stability z-score in the experiment with potassium arsenate, with lipoamide (setting [1]) and with lipoamide (arsenate co-treatment: none) were 0.0862, 0.292 and 0.0166, respectively.

In the case of RAB9A (UniProt P51151), the thermal stability z-score with potassium arsenate was 0.801; in the experiment with lipoamide (setting [1]), 0.654; with lipoamide (arsenate co-treatment: none), 0.721.

As for TBL1X (UniProt O60907), the figures for the thermal stability z-score with potassium arsenate, with lipoamide (setting [1]) and with lipoamide (arsenate co-treatment: none) were 0.341, 0.835 and -0.0254, respectively.

In the case of C1ORF131 (UniProt Q8NDD1), the thermal stability z-score with potassium arsenate is -0.733; in the experiment with lipoamide (setting [1]), 1.04; with lipoamide (arsenate co-treatment: none) it was -0.388.

As for MRPL14 (UniProt Q6P1L8), the thermal stability z-score was 1.59 with potassium arsenate, -0.566 in the experiment with lipoamide (setting [1]) and 0.0684 with lipoamide (arsenate co-treatment: none).

On to CISD3 (UniProt P0C7P0), for which the thermal stability z-score is 0.0591 with potassium arsenate, 1.09 in the experiment with lipoamide (setting [1]) and 1.49 with lipoamide (arsenate co-treatment: none).

With INPPL1 (UniProt O15357), the results for the thermal stability z-score in the experiment with potassium arsenate, with lipoamide (setting [1]) and in the experiment with lipoamide (arsenate co-treatment: none) were 0.0386, -0.527 and -0.154, respectively.

Turning to CUL4A (UniProt Q13619), the results for the thermal stability z-score with potassium arsenate, with lipoamide (setting [1]) and with lipoamide (arsenate co-treatment: none) were -0.0896, 0.0347 and -0.214, respectively.

In the case of CBFB (UniProt Q13951), the thermal stability z-score is 0.352 with potassium arsenate, -0.0158 with lipoamide (setting [1]) and -0.159 with lipoamide (arsenate co-treatment: none).
